These results are taken from patent US8796466B2, “Hepatitis C virus inhibitors” (Bristol-Myers Squibb Company, priority 2009, dated 2014).

pEC50: −log10 of the molar value.

The subject of assay [1] is HCV 1b genotype. The experiment in a line: HCV Replicon assay (HCV 1b genotype). As to conditions: Hepatitis C virus; HCV 1b genotype replicon; class symbol; read-out: Range (EC50 values against HCV 1b). The class given is cell-based, Hepatitis C virus. In short, it runs like this: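 HCV-neo replicon cells, wild-type plus lines carrying NS5A-region mutations, were exposed to compound; luciferase-reporter replicon variants were also used.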

The test system of assay [2] is HCV. As to conditions: literature references; cited from earlier work.

Consider `CCNC(=O)N[C@@H](C(=O)N1CCC[C@H]1c1nc(-c2ccc(COCc3cccc(-c4c[nH]c([C@@H]5CCCN5C(=O)[C@H](NC(=O)NCC)c5ccccc5)n4)c3)cc2)c[nH]1)c1ccccc1` [OL-24, 1-ethyl-3-((1R)-2-((2S)-2-(4-(3-(((4-(2-((2S)-1-((2R)-2-((ethylcarbamoyl)amino)-2-phenylacetyl)-2-pyrrolidinyl)-1H-imidazol-4-yl)benzyl)oxy)methyl)phenyl)-1H-imidazol-2-yl)-1-pyrrolidinyl)-2-oxo-1-phenylethyl)urea], for which the pEC50 in assay [1] was 10.00 to 11.70. The same measure, in the same setting: next, `O=C(NC1CCCC1)N[C@@H](C(=O)N1CCC[C@H]1c1nc(-c2ccc(COCc3cccc(-c4c[nH]c([C@@H]5CCCN5C(=O)[C@H](NC(=O)NC5CCCC5)c5ccccc5)n4)c3)cc2)c[nH]1)c1ccccc1` [OL-25, 1-cyclopentyl-3-((1R)-2-((2S)-2-(4-(3-(((4-(2-((2S)-1-((2R)-2-((cyclopentylcarbamoyl)amino)-2-phenylacetyl)-2-pyrrolidinyl)-1H-imidazol-4-yl)benzyl)oxy)methyl)phenyl)-1H-imidazol-2-yl)-1-pyrrolidinyl)-2-oxo-1-phenylethyl)urea]: 10.00 to 11.70; `COC(=O)N[C@H](C(=O)N1[C@@H]2C[C@@H]2C[C@H]1c1nc(-c2ccc([C@@H]3C[C@H]3c3ccc(-c4c[nH]c([C@@H]5C[C@H]6C[C@H]6N5C(=O)[C@@H](NC(=O)OC)C(C)C)n4)cc3)cc2)c[nH]1)C(C)C` [m9.5, methyl ((1S)-1-(((1R,3S,5R)-3-(4-(4-((1R,2R)-2-(4-(2-((1R,3S,5R)-2-((2S)-2-((methoxycarbonyl)amino)-3-methylbutanoyl)-2-azabicyclo[3.1.0]hex-3-yl)-1H-imidazol-4-yl)phenyl)cyclopropyl)phenyl)-1H-imidazol-2-yl)-2-azabicyclo[3.1.0]hex-2-yl)carbonyl)-2-methylpropyl)carbamate]: 10.00 to 11.70.

Turning to cyclosporin A, the “activity against HCV in clinical trials” value in assay [2] was “active against HCV”.
